Earlier results on one molecule are cited in US20100179115A1, “USE OF A GLUCOCORTICOID RECEPTOR II ANTAGONIST TO TREAT DEPRESSION IN PATIENTS TAKING IL-2” (Corcept Therapeutics, Inc., priority 2006, published 2010).

The subject of one data set is severe major depression. The note with it: four patients, one completed, no control group; Murphy 1993.
Data set [1] concerns IL-1 induced memory deficits. Conditions: Song 2002.
For data set [2] the following is noted: in one study (Kawai).

Take `CC#C[C@]1(O)CC[C@H]2[C@@H]3CCC4=CC(=O)CCC4=C3[C@@H](c3ccc(N(C)C)cc3)C[C@@]21C` [Mifepristone, 17-beta-hydroxy-11-beta-(4-dimethyl-aminophenyl)-17-alpha-(1-propynyl)-estra-4,9-dien-3-one]: in the data set on severe major depression, the “effectiveness in treating depression” value is given as “no clear evidence that RU486 was effective”. Besides, in data set [1] (after one or two treatments), the “recovery of rats that did not recover from the deleterious effects of IL-1” value was “complete recovery”. Also, in data set [1] (rats, i.c.v. injection immediately prior to IL-1), the “effect on learning and memory impairments associated with IL-1 administration” value is “significant reduction in learning and memory impairments”. For the same molecule, in data set [2], the “fraction of the daily dose excreted in the urine” value is “less than 0.5%”.
